Experimental data published in patent US9593108B2, “Compounds and methods for antiviral treatment” (PTC Therapeutics, Inc., priority 2009, dated 2017).

Assays:
[1] = test system: HCV replicon RNA (GenBank Accession No. AJ242654); assay: HCV Replicon Assay (replicon RNA reduction and/or Fluc reporter signal); format: cell-based, Hepatitis C virus; conditions: Hepatitis C virus, 72 h, replicon-containing cells cultured with test compound for up to 3 days
How it was run: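 Bicistronic replicon-containing cells cultured with compound for up to 3 days, with interferon as positive control. Inhibition quantified by replicon RNA reduction and/or Fluc reporter signal; IC50 values generally derived from replicon RNA reduction.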

Structure (SMILES)	IC50 [1]	melting point
Cc1cnc2c(c1)c(C#N)c(-c1ccc(S(=O)(=O)N[C@@H](C)C(F)(F)F)cn1)n2CC1CC1 [Cpd 494, 6-[3-cyano-1-(cyclopropylmethyl)-5-methyl-1H-pyrrolo[2,3-b]pyridin-2-yl]-N-[(2S)-1,1,1-trifluoropropan-2-yl]pyridine-3-sulfonamide]	< 500 nM	198 to 204 °C
Cc1cnc2c(c1)c(C#N)c(-c1ccc(S(=O)(=O)N[C@@H](C)C(F)(F)F)cn1)n2CC(C)C [Cpd 495, 6-[3-cyano-5-methyl-1-(2-methylpropyl)-1H-pyrrolo[2,3-b]pyridin-2-yl]-N-[(2S)-1,1,1-trifluoropropan-2-yl]pyridine-3-sulfonamide]	< 500 nM	125 to 130 °C
Cc1cnc2c(c1)c(C#N)c(-c1ccc(S(=O)(=O)N[C@@H](C)C(F)(F)F)cn1)n2CC1CCC1 [Cpd 496, 6-[3-cyano-1-(cyclobutylmethyl)-5-methyl-1H-pyrrolo[2,3-b]pyridin-2-yl]-N-[(2S)-1,1,1-trifluoropropan-2-yl]pyridine-3-sulfonamide]	< 500 nM	135 to 139 °C
C[C@H](NS(=O)(=O)c1ccc(-c2c(C#N)c3cc(N(C)C)cnc3n2C2CCC2)nc1)C(F)(F)F [Cpd 497, 6-[3-cyano-1-cyclobutyl-5-(dimethylamino)-1H-pyrrolo[2,3-b]pyridin-2-yl]-N-[(2S)-1,1,1-trifluoropropan-2-yl]pyridine-3-sulfonamide]	< 500 nM	183 to 185 °C
CN(C)c1cnc2c(c1)c(C#N)c(-c1ccc(NS(=O)(=O)C(C)(C)C)cc1)n2C1CCC1 [Cpd 498, N-{4-[3-cyano-1-cyclobutyl-5-(dimethylamino)-1H-pyrrolo[2,3-b]pyridin-2-yl]phenyl}-2-methylpropane-2-sulfonamide]	< 500 nM	200 to 202 °C
CN(C)c1cnc2c(c1)c(C#N)c(-c1ccc(NS(=O)(=O)C3(C)CC3)cc1)n2C1CCC1 [Cpd 499, N-{4-[3-cyano-1-cyclobutyl-5-(dimethylamino)-1H-pyrrolo[2,3-b]pyridin-2-yl]phenyl}-1-methylcyclopropanesulfonamide]	< 500 nM	209 to 213 °C
C[C@H](NS(=O)(=O)c1ccc(-c2c(C#N)c3cc(N(C)C)cnc3n2C2CCC2)cc1)C(F)(F)F [Cpd 500, 4-[3-cyano-1-cyclobutyl-5-(dimethylamino)-1H-pyrrolo[2,3-b]pyridin-2-yl]-N-[(2S)-1,1,1-trifluoropropan-2-yl]benzenesulfonamide]	< 500 nM	198 to 200 °C
Cc1cnc2c(c1)c(C#N)c(-c1ccc(S(=O)(=O)N[C@@H](C)C(F)(F)F)cn1)n2-c1ccccc1F [Cpd 501, 6-[3-cyano-1-(2-fluorophenyl)-5-methyl-1H-pyrrolo[2,3-b]pyridin-2-yl]-N-[(2S)-1,1,1-trifluoropropan-2-yl]pyridine-3-sulfonamide]	< 500 nM	128 °C (dec.)
Cc1cnc2c(c1)c(C#N)c(-c1ccc(S(=O)(=O)N[C@@H](C)C(F)(F)F)cn1)n2-c1cccc(F)c1 [Cpd 502, 6-[3-cyano-1-(3-fluorophenyl)-5-methyl-1H-pyrrolo[2,3-b]pyridin-2-yl]-N-[(2S)-1,1,1-trifluoropropan-2-yl]pyridine-3-sulfonamide]	< 500 nM	238 to 240 °C
Cc1cnc2c(c1)c(C#N)c(-c1ccc(S(=O)(=O)N[C@@H](C)C(F)(F)F)cn1)n2-c1ccc(F)cc1 [Cpd 503, 6-[3-cyano-1-(4-fluorophenyl)-5-methyl-1H-pyrrolo[2,3-b]pyridin-2-yl]-N-[(2S)-1,1,1-trifluoropropan-2-yl]pyridine-3-sulfonamide]	< 500 nM	253 to 254 °C
Cc1cnc2c(c1)c(C#N)c(-c1ccc(S(=O)(=O)N[C@@H](C)C(F)(F)F)cn1)n2-c1cc(F)ccc1F [Cpd 504, 6-[3-cyano-1-(2,5-difluorophenyl)-5-methyl-1H-pyrrolo[2,3-b]pyridin-2-yl]-N-[(2S)-1,1,1-trifluoropropan-2-yl]pyridine-3-sulfonamide]	< 500 nM	232 to 234 °C
Cc1cnc2c(c1)c(C#N)c(-c1ccc(S(=O)(=O)N[C@@H](C)C(F)(F)F)cn1)n2-c1ccc(F)c(F)c1 [Cpd 505, 6-[3-cyano-1-(3,4-difluorophenyl)-5-methyl-1H-pyrrolo[2,3-b]pyridin-2-yl]-N-[(2S)-1,1,1-trifluoropropan-2-yl]pyridine-3-sulfonamide]	< 500 nM	250 to 252 °C
Cc1cnc2c(c1)c(C#N)c(-c1ccc(S(=O)(=O)N[C@@H](C)C(F)(F)F)cn1)n2-c1cc(F)cc(F)c1 [Cpd 506, 6-[3-cyano-1-(3,5-difluorophenyl)-5-methyl-1H-pyrrolo[2,3-b]pyridin-2-yl]-N-[(2S)-1,1,1-trifluoropropan-2-yl]pyridine-3-sulfonamide]	< 500 nM	260 to 262 °C
Cc1cnc2c(c1)c(C#N)c(-c1ccc(S(=O)(=O)N[C@@H](C)C(F)(F)F)cn1)n2-c1cscn1 [Cpd 507, 6-[3-cyano-5-methyl-1-(1,3-thiazol-4-yl)-1H-pyrrolo[2,3-b]pyridin-2-yl]-N-[(2S)-1,1,1-trifluoropropan-2-yl]pyridine-3-sulfonamide]	< 500 nM	186 to 188 °C
Cc1cnc2c(c1)c(C#N)c(-c1ccc(S(=O)(=O)N[C@@H](C)C(F)(F)F)cn1)n2-c1cc(C#N)ncn1 [Cpd 508, 6-[3-cyano-1-(6-cyanopyrimidin-4-yl)-5-methyl-1H-pyrrolo[2,3-b]pyridin-2-yl]-N-[(2S)-1,1,1-trifluoropropan-2-yl]pyridine-3-sulfonamide]	< 500 nM	120 to 122 °C
CCc1cnc2c(c1)c(C#N)c(-c1ccc(S(=O)(=O)N[C@@H](C)C(F)(F)F)cn1)n2-c1cccs1 [Cpd 509, 6-[3-cyano-5-ethyl-1-(thiophen-2-yl)-1H-pyrrolo[2,3-b]pyridin-2-yl]-N-[(2S)-1,1,1-trifluoropropan-2-yl]pyridine-3-sulfonamide]	< 500 nM	169 to 171 °C
CCc1cnc2c(c1)c(C#N)c(-c1ccc(S(=O)(=O)N[C@@H](C)C(F)(F)F)cn1)n2-c1ccc(F)cc1 [Cpd 510, 6-[3-cyano-5-ethyl-1-(4-fluorophenyl)-1H-pyrrolo[2,3-b]pyridin-2-yl]-N-[(2S)-1,1,1-trifluoropropan-2-yl]pyridine-3-sulfonamide]	< 500 nM	212 to 214 °C
CCc1cnc2c(c1)c(C#N)c(-c1ccc(S(=O)(=O)N[C@@H](C)C(F)(F)F)cn1)n2-c1cccc(F)c1 [Cpd 511, 6-[3-cyano-5-ethyl-1-(3-fluorophenyl)-1H-pyrrolo[2,3-b]pyridin-2-yl]-N-[(2S)-1,1,1-trifluoropropan-2-yl]pyridine-3-sulfonamide]	< 500 nM	195 to 197 °C
CCc1cnc2c(c1)c(C#N)c(-c1ccc(S(=O)(=O)N[C@@H](C)C(F)(F)F)cn1)n2-c1nccs1 [Cpd 512, 6-[3-cyano-5-ethyl-1-(1,3-thiazol-2-yl)-1H-pyrrolo[2,3-b]pyridin-2-yl]-N-[(2S)-1,1,1-trifluoropropan-2-yl]pyridine-3-sulfonamide]	< 500 nM	229 to 231 °C
[2H]C(C)(C)NS(=O)(=O)c1ccc(-c2c(C#N)c3cc(C(F)(F)F)cnc3n2C2CCC2)nc1 [Cpd 513, 6-[3-cyano-1-cyclobutyl-5-(trifluoromethyl)-1H-pyrrolo[2,3-b]pyridin-2-yl]-N-[(2-deuterium)propan-2-yl]pyridine-3-sulfonamide]	< 500 nM	191 to 193 °C
Cc1cnc2c(c1)c(C#N)c(-c1ccc(S(=O)(=O)N[C@@H](C)C(F)(F)F)cn1)n2-c1nc(C#N)cs1 [Cpd 514, 6-[3-cyano-1-(4-cyano-1,3-thiazol-2-yl)-5-methyl-1H-pyrrolo[2,3-b]pyridin-2-yl]-N-[(2S)-1,1,1-trifluoropropan-2-yl]pyridine-3-sulfonamide]	500 to 2000 nM	259 to 261 °C
CC(C)(C)NS(=O)(=O)c1ccc(-c2c(C#N)c3cc(Cl)cnc3n2-c2nccs2)nc1 [Cpd 515, N-tert-butyl-6-[5-chloro-3-cyano-1-(1,3-thiazol-2-yl)-1H-pyrrolo[2,3-b]pyridin-2-yl]pyridine-3-sulfonamide]	< 500 nM	216 to 218 °C
CC(C)(C)NS(=O)(=O)c1ccc(-c2c(C#N)c3cc(C(F)(F)F)cnc3n2-c2ccccc2)nc1 [Cpd 516, N-tert-butyl-6-[3-cyano-1-phenyl-5-(trifluoromethyl)-1H-pyrrolo[2,3-b]pyridin-2-yl]pyridine-3-sulfonamide]	< 500 nM	201.2 to 202.4 °C
CC(C)(C)NS(=O)(=O)c1ccc(-c2c(C#N)c3cc(C(F)(F)F)cnc3n2-c2ccc(F)cc2)nc1 [Cpd 517, N-tert-butyl-6-[3-cyano-1-(4-fluorophenyl)-5-(trifluoromethyl)-1H-pyrrolo[2,3-b]pyridin-2-yl]pyridine-3-sulfonamide]	500 to 2000 nM	228.3 to 229.4 °C
CC(C)(C)NS(=O)(=O)c1ccc(-c2c(C#N)c3cc(C(F)(F)F)cnc3n2-c2ccccn2)nc1 [Cpd 518, N-tert-butyl-6-[3-cyano-1-(pyridin-2-yl)-5-(trifluoromethyl)-1H-pyrrolo[2,3-b]pyridin-2-yl]pyridine-3-sulfonamide]	< 500 nM	210.4 to 211.8 °C
CC(C)(C)NS(=O)(=O)c1ccc(-c2c(C#N)c3cc(F)cnc3n2-c2ccccc2)nc1 [Cpd 519, N-tert-butyl-6-(3-cyano-5-fluoro-1-phenyl-1H-pyrrolo[2,3-b]pyridin-2-yl)pyridine-3-sulfonamide]	< 500 nM	239.4 to 241.5 °C
CC(C)(C)NS(=O)(=O)c1ccc(-c2c(C#N)c3cc(F)cnc3n2-c2ccc(F)cc2)nc1 [Cpd 520, N-tert-butyl-6-[3-cyano-5-fluoro-1-(4-fluorophenyl)-1H-pyrrolo[2,3-b]pyridin-2-yl]pyridine-3-sulfonamide]	2000 to 5000 nM	259.1 to 260.7 °C
